# Results from ChEMBL document CHEMBL1201862, “PubChem BioAssay data set” (2004).
#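 Interpolation was linear, between the two tested concentrations surrounding the appropriate level; five concentrations were tested over 48 hours in 96-well plates. Here, GI50 denotes the concentration required for 50% inhibition of growth.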 The source made the active and inactive calls. Rule as the data show it: active = GI50 up to about 1.1 µM and inactive = higher.
# What was measured:
# Experiment in all cases: inhibition of tumour cell growth, NCI panel, 48 h
# KM-20L2 = system: KM-20L2
# SNB-78 = system: SNB-78
# M19-MEL = system: M19-MEL
# XF498 = system: XF498
# DMS-273 = system: DMS-273
# RXF 631 = system: RXF 631
# DLD-1 = system: DLD-1
# DMS-114 = system: DMS-114
# HOP-18 = system: HOP-18
SMILES,GI50 (KM-20L2),GI50 (SNB-78),GI50 (M19-MEL),GI50 (XF498),GI50 (DMS-273),GI50 (RXF 631),GI50 (DLD-1),GI50 (DMS-114),GI50 (HOP-18)
Cc1ccc(NC(=O)CC(=O)n2nc(C)c(/N=N/c3ccccc3C(=O)O)c2C)cc1,> 100 µM (inactive),> 100 µM (inactive),> 100 µM (inactive),> 100 µM (inactive),> 100 µM (inactive),> 100 µM (inactive),> 100 µM (inactive),> 100 µM (inactive),–
OCC(O)C(O)C(O)C1SC(c2ccccc2)=NN1c1ccccc1 (stereo not given),> 100 µM (inactive),44.4 µM (inactive),> 100 µM (inactive),30.1 µM (inactive),> 76.6 µM (inactive),49.3 µM (inactive),> 100 µM (inactive),> 84.7 µM (inactive),51.8 µM (inactive)
CCOC(=O)NC(=O)c1cn(CCN2CCN(C(=O)NCCCCCCNC(=O)N3CCN(CCn4cc(C(=O)NC(=O)OCC)c(=O)n(CCN(CC)CC)c4=O)CC3)CC2)c(=O)n(CCC(CC)CC)c1=O,> 100 µM (inactive),> 100 µM (inactive),> 100 µM (inactive),–,> 100 µM (inactive),–,> 100 µM (inactive),> 100 µM (inactive),> 100 µM (inactive)
O=[N+]([O-])c1cc(Cl)ccc1OCc1ccccc1,–,32.8 µM (inactive),44.3 µM (inactive),20.4 µM (inactive),54.6 µM (inactive),> 100 µM (inactive),82.2 µM (inactive),29.4 µM (inactive),–
CCCCCCCCC(C)CCCCCCCCC(=O)OCC(COP(=O)([O-])OCC[N+](C)(C)C)OC(=O)CCCCCCCCC(C)CCCCCCCC (stereo not given),> 100 µM (inactive),> 100 µM (inactive),> 100 µM (inactive),–,> 100 µM (inactive),> 100 µM (inactive),> 100 µM (inactive),> 100 µM (inactive),> 100 µM (inactive)
O=C1C2C3C=C4c5ccccc5N(c5ccccc5)C4(C2C(=O)N1c1ccc([N+](=O)[O-])cc1)[C@H]1C(=O)N(c2ccc([N+](=O)[O-])cc2)C(=O)[C@@H]31 (stereo not given in full),> 100 µM (inactive),> 100 µM (inactive),> 100 µM (inactive),–,> 100 µM (inactive),–,> 100 µM (inactive),> 100 µM (inactive),> 100 µM (inactive)
COc1cc(/C=N/N=C(\N)NO)c([N+](=O)[O-])cc1OC,30.1 µM (inactive),76.2 µM (inactive),31.9 µM (inactive),–,25.9 µM (inactive),26.7 µM (inactive),56 µM (inactive),6.75 µM (inactive),21 µM (inactive)
CC(=O)Nc1ccc(C2CC(c3ccc([N+](=O)[O-])cc3)=Nc3ccccc3S2)cc1 (stereo not given),20.2 µM (inactive),36.1 µM (inactive),18.8 µM (inactive),13.3 µM (inactive),24.4 µM (inactive),22.9 µM (inactive),13.3 µM (inactive),–,24.3 µM (inactive)
COc1ccc(C2C(Cl)C(=O)N2NC(=O)c2ccc(N)cc2)cc1OC (stereo not given),12.1 µM (inactive),63.7 µM (inactive),4.95 µM (inactive),1 µM (active),2.72 µM (inactive),–,3.66 µM (inactive),–,–
S=C(Nc1ccccc1)N(/N=C/C=C/c1ccccc1)c1nnc(-c2ccccc2)c(-c2ccccc2)n1,> 100 µM (inactive),> 100 µM (inactive),64.9 µM (inactive),61 µM (inactive),45.5 µM (inactive),80.7 µM (inactive),76.4 µM (inactive),26.4 µM (inactive),–
CC(=O)c1cccc(NC(=O)C(=O)C(C2OC(=O)c3ccccc32)[N+](=O)[O-])c1 (stereo not given),> 100 µM (inactive),> 100 µM (inactive),> 100 µM (inactive),> 100 µM (inactive),–,> 100 µM (inactive),> 100 µM (inactive),> 100 µM (inactive),–
O=C(O)C(=O)/C=C\c1ccc(Cl)cc1,> 100 µM (inactive),> 100 µM (inactive),> 100 µM (inactive),> 100 µM (inactive),> 100 µM (inactive),–,> 100 µM (inactive),84.1 µM (inactive),> 100 µM (inactive)
Cc1ccc2[nH]c(=O)c(C(C#N)c3ccccc3)nc2c1 (stereo not given),37.2 µM (inactive),28.1 µM (inactive),–,–,44.5 µM (inactive),44.1 µM (inactive),42.6 µM (inactive),–,24.7 µM (inactive)
O=C(CSc1nnc(-c2ccc(/N=C\c3ccc(Cl)cc3)cc2)o1)Nc1cccc(Cl)c1,> 100 µM (inactive),> 100 µM (inactive),> 100 µM (inactive),> 100 µM (inactive),> 100 µM (inactive),–,–,> 100 µM (inactive),> 100 µM (inactive)
N#Cc1c(N)oc2cc3c(C#N)c(N)oc3cc12,> 100 µM (inactive),–,> 100 µM (inactive),–,> 100 µM (inactive),> 100 µM (inactive),> 100 µM (inactive),> 100 µM (inactive),> 100 µM (inactive)
O=c1c2cc(-c3ccccc3)sc2nc2sc(-c3ccccc3)nn12,> 100 µM (inactive),> 100 µM (inactive),> 100 µM (inactive),> 100 µM (inactive),> 100 µM (inactive),> 100 µM (inactive),> 100 µM (inactive),> 100 µM (inactive),> 100 µM (inactive)
Cc1ccccc1N1C(=O)/C(=C/c2ccc(N(CCC#N)CCC#N)cc2)N=C1c1cc([N+](=O)[O-])ccc1Cl,> 100 µM (inactive),> 100 µM (inactive),–,–,78.9 µM (inactive),> 100 µM (inactive),79.1 µM (inactive),> 100 µM (inactive),> 100 µM (inactive)
Cc1[nH]c2ccccc2c1C1Cc2ccccc2N1C(=O)/C=C/C(=O)O (stereo not given),> 100 µM (inactive),> 100 µM (inactive),> 100 µM (inactive),32.4 µM (inactive),> 100 µM (inactive),18.4 µM (inactive),> 100 µM (inactive),> 100 µM (inactive),–
